Laboratory results reported in PubChem BioAssay (NCI).
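A five-concentration, 48-hour dose response in 96-well plates underlies each endpoint, interpolated linearly between surrounding concentrations. TGI: concentration producing complete growth inhibition.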

Tests used:
Assay in all cases: growth of human tumour cells (NCI), 48 h
[1] = tested on: 786-0 renal
[2] = tested on: A498 renal
[3] = tested on: A549 NSCLC
[4] = tested on: ACHN renal
[5] = tested on: BT-549 breast
[6] = tested on: CAKI-1 renal
[7] = tested on: CCRF-CEM leukemia
[8] = tested on: DU-145 prostate
[9] = tested on: EKVX NSCLC
[10] = tested on: HCT-116 colon
[11] = tested on: HCT-15 colon
[12] = tested on: HL-60(TB) leukemia
[13] = tested on: HOP-62 NSCLC
[14] = tested on: HOP-92 NSCLC
[15] = tested on: HT29 colon
[16] = tested on: IGROV1 ovarian
[17] = tested on: K-562 leukemia
[18] = tested on: KM12 colon
[19] = tested on: LOX IMVI melanoma
[20] = tested on: M14 melanoma
[21] = tested on: MALME-3M melanoma
[22] = tested on: MCF7 breast
[23] = tested on: MDA-MB-231 breast
[24] = tested on: MDA-MB-435
[25] = tested on: MDA-N
[26] = tested on: MOLT-4 leukemia
[27] = tested on: NCI-H226 lung
[28] = tested on: NCI-H23 lung
[29] = tested on: NCI-H460 lung
[30] = tested on: NCI-H522 lung
[31] = tested on: NCI/ADR-RES ovarian
[32] = tested on: OVCAR-3 ovarian
[33] = tested on: OVCAR-5 ovarian
[34] = tested on: OVCAR-8 ovarian
[35] = tested on: PC-3 prostate
[36] = tested on: RXF 393 renal
[37] = tested on: SF-268 CNS
[38] = tested on: SF-295 CNS
[39] = tested on: SF-539 CNS
[40] = tested on: SK-MEL-28 melanoma
[41] = tested on: SK-MEL-5 melanoma
[42] = tested on: SN12C renal
[43] = tested on: SNB-19 CNS
[44] = tested on: SNB-75 CNS
[45] = tested on: SR leukemia
[46] = tested on: SW-620 colon
[47] = tested on: T-47D breast
[48] = tested on: TK-10 renal
[49] = tested on: U251 CNS
[50] = tested on: UACC-257 melanoma
[51] = tested on: UO-31 renal
[52] = tested on: COLO 205 colon
[53] = tested on: HCC-2998 colon
[54] = tested on: HS 578T breast
[55] = tested on: OVCAR-4 ovarian
[56] = tested on: RPMI-8226 leukemia
[57] = tested on: SK-MEL-2 melanoma
[58] = tested on: SK-OV-3 ovarian
[59] = tested on: UACC-62 melanoma

Question: With `CCN1CCCCCCCCCC(=N/O)/C(=N\O)C1` as the compound, how does the TGI [1] read?
Answer: The TGI was greater than 100 µM.

Question: And the TGI [2]?
Answer: Its TGI is greater than 100 µM.

Question: And the TGI [3]?
Answer: Its TGI is greater than 100 µM.

Question: What about the TGI [4] of the same compound?
Answer: Its TGI is greater than 100 µM.

Question: And the TGI [5]?
Answer: Its TGI is greater than 100 µM.

Question: And the TGI [6]?
Answer: Its TGI is greater than 100 µM.

Question: What about the TGI [7] of the same compound?
Answer: The TGI was greater than 100 µM.

Question: What about the TGI [8] of the same compound?
Answer: The TGI was greater than 100 µM.

Question: What about the TGI [9] of the same compound?
Answer: The TGI was greater than 100 µM.

Question: And the TGI [10]?
Answer: The TGI was greater than 100 µM.

Question: And the TGI [11]?
Answer: Its TGI is greater than 100 µM.

Question: What about the TGI [12] of the same compound?
Answer: Its TGI is greater than 100 µM.

Question: And the TGI [13]?
Answer: Its TGI is greater than 100 µM.

Question: What about the TGI [14] of the same compound?
Answer: The TGI was greater than 100 µM.

Question: What about the TGI [15] of the same compound?
Answer: Its TGI is greater than 100 µM.

Question: And the TGI [16]?
Answer: The TGI was greater than 100 µM.

Question: What about the TGI [17] of the same compound?
Answer: Its TGI is greater than 100 µM.

Question: And the TGI [18]?
Answer: The TGI was greater than 100 µM.

Question: And the TGI [19]?
Answer: Its TGI is greater than 100 µM.

Question: And the TGI [20]?
Answer: The TGI was greater than 100 µM.

Question: What about the TGI [21] of the same compound?
Answer: The TGI was greater than 100 µM.

Question: And the TGI [22]?
Answer: The TGI was greater than 100 µM.

Question: What about the TGI [23] of the same compound?
Answer: The TGI was greater than 100 µM.

Question: And the TGI [24]?
Answer: Its TGI is greater than 100 µM.

Question: And the TGI [25]?
Answer: Its TGI is greater than 100 µM.

Question: And the TGI [26]?
Answer: Its TGI is greater than 100 µM.

Question: What about the TGI [27] of the same compound?
Answer: Its TGI is greater than 100 µM.

Question: What about the TGI [28] of the same compound?
Answer: The TGI was greater than 100 µM.

Question: And the TGI [29]?
Answer: Its TGI is greater than 100 µM.

Question: And the TGI [30]?
Answer: Its TGI is greater than 100 µM.

Question: And the TGI [31]?
Answer: Its TGI is greater than 100 µM.

Question: And the TGI [32]?
Answer: The TGI was greater than 100 µM.

Question: And the TGI [33]?
Answer: Its TGI is greater than 100 µM.

Question: What about the TGI [34] of the same compound?
Answer: Its TGI is greater than 100 µM.

Question: What about the TGI [35] of the same compound?
Answer: Its TGI is greater than 100 µM.

Question: And the TGI [36]?
Answer: Its TGI is greater than 100 µM.

Question: What about the TGI [37] of the same compound?
Answer: Its TGI is greater than 100 µM.

Question: And the TGI [38]?
Answer: Its TGI is greater than 100 µM.

Question: And the TGI [39]?
Answer: The TGI was greater than 100 µM.

Question: And the TGI [40]?
Answer: Its TGI is greater than 100 µM.

Question: And the TGI [41]?
Answer: Its TGI is greater than 100 µM.

Question: What about the TGI [42] of the same compound?
Answer: The TGI was greater than 100 µM.

Question: What about the TGI [43] of the same compound?
Answer: Its TGI is greater than 100 µM.

Question: And the TGI [44]?
Answer: Its TGI is greater than 100 µM.

Question: And the TGI [45]?
Answer: The TGI was greater than 100 µM.

Question: And the TGI [46]?
Answer: Its TGI is greater than 100 µM.

Question: What about the TGI [47] of the same compound?
Answer: The TGI was greater than 100 µM.

Question: What about the TGI [48] of the same compound?
Answer: Its TGI is greater than 100 µM.

Question: And the TGI [49]?
Answer: The TGI was greater than 100 µM.

Question: What about the TGI [50] of the same compound?
Answer: The TGI was greater than 100 µM.

Question: And the TGI [51]?
Answer: The TGI was greater than 100 µM.

Question: Which results are given for `O=C(Oc1ccc(C(c2c(O)c3ccccc3oc2=O)c2c(O)c3ccccc3oc2=O)cc1)c1ccc(C(=O)c2ccccc2)cc1`?
Answer: TGI [1]: > 100 µM; TGI [3]: 55.8 µM; TGI [4]: 40.3 µM; TGI [6]: 57.4 µM; TGI [7]: 42.8 µM; TGI [52]: > 100 µM; TGI [8]: > 100 µM; TGI [9]: 34.6 µM; TGI [53]: 36 µM; TGI [10]: > 100 µM; TGI [11]: 89.4 µM; TGI [13]: 69.9 µM; TGI [54]: > 100 µM; TGI [15]: 31.8 µM; TGI [16]: 36.6 µM; TGI [17]: 47.9 µM; TGI [18]: 30.8 µM; TGI [19]: 52.1 µM; TGI [22]: > 100 µM; TGI [23]: > 100 µM; TGI [24]: 42.3 µM; TGI [25]: > 100 µM; TGI [26]: 41.3 µM; TGI [27]: 25.9 µM; TGI [28]: 35.3 µM; TGI [29]: 45.6 µM; TGI [30]: 30.6 µM; TGI [31]: 34.8 µM; TGI [32]: 36.5 µM; TGI [55]: 92.1 µM; TGI [33]: 38.3 µM; TGI [34]: 33.8 µM; TGI [35]: 35.8 µM; TGI [56]: 56.5 µM; TGI [36]: 83.6 µM; TGI [37]: 66.5 µM; TGI [38]: 51.3 µM; TGI [39]: 36.5 µM; TGI [57]: 35.2 µM; TGI [40]: 36.5 µM; TGI [41]: 75 µM; TGI [58]: 33.4 µM; TGI [42]: > 100 µM; TGI [43]: 37.2 µM; TGI [44]: 32.4 µM; TGI [45]: 55.7 µM; TGI [46]: > 100 µM; TGI [47]: > 100 µM; TGI [48]: 37.8 µM; TGI [49]: 54.7 µM; TGI [50]: 33.9 µM; TGI [59]: 41 µM; TGI [51]: 31.6 µM
